According to US20150224164A1, “TREATMENT OF AUTISM SPECTRUM DISORDERS USING GLYCYL-L-2-METHYLPROLYL-L-GLUMATIC ACID” (Neuren Pharmaceuticals Limited, priority 2013, published 2015):

Assays:
[1] = tested on: cortical neurons injured with okadaic acid; experiment: In vitro neuroprotection, cortical cultures injured with okadaic acid (MTT); assay type: cell-based, rat; settings: 10 μM; okadaic acid injury; 24 hours incubation; MTT-assay
Experimental: A dam was sacrificed by CO2-treatment, and then was prepared for caesarean section. After surgery, the embryos were removed from their amniotic sacs and decapitated. The heads were placed on ice in DMEM/F12 medium for striatum and PBS+0.65% D(+)-glucose for cortex.
The two cortical hemispheres were carefully removed by spatula from the whole brain with the ventral side facing upside into a PBS+0.65% D(+)-glucose containing petri dish. Forceps were put into the rostral part (near B. olfactorius) of the cortex in order to fix the tissue and two lateral-sagittal oriented cuts were made to remove the […] and entorhinal cortices. […]
The cells were triturated once with a glass Pasteur pipette in 1 ml of Neurobasal/B27 medium and subsequently twice by using a 1 ml insulin syringe with a 22 gauge needle. […] Cells were counted and adjusted to 50,000 cells per 60 μl. […]
To cause toxic injury to neurons, we exposed neurons to 1:100 parts of okadaic acid at concentrations of 30 nM or 100 nM and 0.5 mM 3-nitropropionic acid (for cerebellar microexplants only). […] The survival rate was determined by a colorimetric end-point MTT-assay at 595 nm in a multi-well plate reader. For the cerebellar microexplants four windows (field of 0.65 mm^2) with highest cell density were chosen and cells displaying neurite outgrowth were counted.

[2] = Pharmacokinetics after intravenous bolus injection; assay type: in vivo, rat
Experimental: Adult male Wistar rats weighing between 180 and 240 g were used to determine the pharmacokinetics of GPE and G2MePE. To facilitate intravenous bolus injections and blood sampling, all rats were surgically implanted with an indwelling jugular venous cannula under halothane anesthesia three days before the experiment. Groups of six rats were given a single intravenous bolus injection of either 30 mg/kg GPE or 10 mg/kg G2MePE dissolved in 0.1M succinate buffer (pH 6.5). Blood samples (about 220 μl each) were collected into heparinized tubes containing Sigma protease inhibitor cocktail for mammalian tissues at 10 and 0 min before injection of either GPE or G2MePE, and 1, 2, 4, 8, 16, 32, 64 and 128 min after injection of either GPE or G2MePE. The samples were centrifuged at 3000 g for 15 min at 4° C. and the plasma removed and stored at −80° C. until extraction and assay by either radioimmunoassay (“RIA”) or reverse phase HPLC. The RIA and HPLC methods used were conventional.
The k and half-life (t1/2) were calculated from the slope of the linear regression line in the elimination phase of the semi-logarithmic plot of plasma concentration versus time as: Log C=−kt/2.3+log C0. Results were expressed as mean±standard error.

MeCP2 knock-out mice = settings: MeCP2 knock-out model; cited from earlier work

In the case of `NCC(=O)N1CCC[C@H]1C(=O)N[C@@H](CCC(=O)O)C(=O)O` [GPE, glycyl-L-prolyl-L-glutamic acid, reference compound], the neuroprotection [1] is reported as 64%, the degradation ([2]; in vivo and in vitro) is reported as “rapidly degraded” and the first order rate constant ([2]; single i.v. bolus, GPE 30 mg/kg, G-2-MePE 10 mg/kg) is reported as 0.15 ± 0.014 min⁻¹. For the same compound, the peak plasma concentration ([2]; single i.v. bolus, GPE 30 mg/kg, G-2-MePE 10 mg/kg, mean±standard error) was 40 ± 10.8 µg/mL and the “life span and neuronal function” value (MeCP2 knock-out mice) was “prolong life and increase neuronal function”.
